Reference: ChEMBL document CHEMBL3817770, “Design and synthesis of 5-aminolaevulinic acid/3-hydroxypyridinone conjugates for photodynamic therapy: enhancement of protoporphyrin IX production and photo-toxicity in tumor cells” (Medchemcomm, 2016)
Activity calls are given as the source filed them. The rule behind the calls is not given here.

Legend:
HeLa [1] = test: Phototoxicity in human HeLa cells assessed as cell survival at 250 uM incubated for 4 hrs followed by irradiation with blue light for 5 mins in presence of CP94 by MTT assay; format: functional; details: light or radiation study, read-out: Survival
MCF7 [2] = test: Dark toxicity in human MCF7 cells at 200 uM after 4 hrs by MTT assay; format: cell-based; details: mcf7, 4 h
A549 [3] = test: Phototoxicity in human A549 cells assessed as cell survival at 200 uM incubated for 4 hrs followed by irradiation with blue light for 5 mins by MTT assay; format: functional; details: A549, light or radiation study, read-out: Survival
HeLa [4] = test: Phototoxicity in human HeLa cells assessed as cell survival at 250 uM incubated for 4 hrs followed by irradiation with blue light for 5 mins by MTT assay; format: functional; details: light or radiation study, read-out: Survival
[5] = Dark toxicity in human BPH1 cells at 200 uM after 4 hrs by MTT assay; format: cell-based; details: bph-1, 4 h
LNCaP [6] = test: Phototoxicity in human LNCAP cells assessed as cell survival at 200 uM incubated for 4 hrs followed by irradiation with blue light for 5 mins by MTT assay; format: functional; details: light or radiation study, read-out: Survival
A549 [7] = test: Phototoxicity in human A549 cells assessed as cell survival at 100 uM incubated for 4 hrs followed by irradiation with blue light for 5 mins in presence of CP94 by MTT assay; format: functional; details: A549, light or radiation study, read-out: Survival
A549 [8] = test: Dark toxicity in human A549 cells at 200 uM after 4 hrs by MTT assay; format: cell-based; details: a549, 4 h
MDA-MB-435 [9] = test: Phototoxicity in human MDA-MB-435 cells assessed as cell survival incubated for 4 hrs followed by irradiation with blue light for 5 mins in presence of CP94 by MTT assay; format: functional, cell-based
[10] = Phototoxicity in human BPH1 cells assessed as cell survival at 100 uM incubated for 4 hrs followed by irradiation with blue light for 5 mins in presence of CP94 by MTT assay; format: cell-based, BPH-1; details: read-out: Survival
MDA-MB-435 [11] = test: Increase in protoporphyrin 9 levels in human MDA-MB-435 cells at 50 to 250 uM after 5 hrs in presence of CP94 by fluorescence spectrometer plate reader method; format: functional, cell-based
LNCaP [12] = test: Phototoxicity in human LNCAP cells assessed as cell survival at 100 uM incubated for 4 hrs followed by irradiation with blue light for 5 mins in presence of CP94 by MTT assay; format: functional; details: light or radiation study, read-out: Survival
MDA-MB-435 [13] = test: Phototoxicity in human MDA-MB-435 cells assessed as cell survival at 250 uM incubated for 4 hrs followed by irradiation with blue light for 5 mins by MTT assay; format: functional; details: MDA-MB-435, light or radiation study, read-out: Survival
KB [14] = test: Phototoxicity in human KB cells assessed as cell survival at 200 uM incubated for 4 hrs followed by irradiation with blue light for 5 mins by MTT assay; format: functional; details: light or radiation study, read-out: Survival
A549 [15] = test: Increase in protoporphyrin 9 levels in human A549 cells at 200 uM after 24 hrs in presence of CP94 by fluorescence spectrometer plate reader method; format: functional
LNCaP [16] = test: Increase in protoporphyrin 9 levels in human LNCAP cells at 200 uM after 6 hrs in presence of CP94 by fluorescence spectrometer plate reader method; format: functional
A549 [17] = test: Increase in protoporphyrin 9 levels in human A549 cells at 200 uM after 3 hrs in presence of CP94 by fluorescence spectrometer plate reader method; format: functional
MDA-MB-435 [18] = test: Phototoxicity in human MDA-MB-435 cells assessed as cell survival at 250 uM incubated for 4 hrs followed by irradiation with blue light for 5 mins in presence of CP94 by MTT assay; format: functional; details: MDA-MB-435, light or radiation study, read-out: Survival
[19] = Phototoxicity in human BPH1 cells assessed as cell survival at 200 uM incubated for 4 hrs followed by irradiation with blue light for 5 mins by MTT assay; format: cell-based, BPH-1; details: BPH1 cells, read-out: Survival
LNCaP [20] = test: Dark toxicity in human LNCAP cells at 200 uM after 4 hrs by MTT assay; format: cell-based
HeLa [21] = test: Increase in protoporphyrin 9 levels in human HeLa cells at 50 to 250 uM after 5 hrs in presence of CP94 by fluorescence spectrometer plate reader method; format: functional, cell-based
MCF7 [22] = test: Phototoxicity in human MCF7 cells assessed as cell survival at 100 uM incubated for 4 hrs followed by irradiation with blue light for 5 mins in presence of CP94 by MTT assay; format: functional; details: MCF7, light or radiation study, read-out: Survival
LNCaP [23] = test: Increase in protoporphyrin 9 levels in human LNCAP cells at 200 uM after 24 hrs in presence of CP94 by fluorescence spectrometer plate reader method; format: functional
HeLa [24] = test: Phototoxicity in human HeLa cells assessed as cell survival incubated for 4 hrs followed by irradiation with blue light for 5 mins in presence of CP94 by MTT assay; format: functional, cell-based
A549 [25] = test: Increase in protoporphyrin 9 levels in human A549 cells at 200 uM after 6 hrs in presence of CP94 by fluorescence spectrometer plate reader method; format: functional
LNCaP [26] = test: Increase in protoporphyrin 9 levels in human LNCAP cells at 200 uM after 3 hrs in presence of CP94 by fluorescence spectrometer plate reader method; format: functional
[27] = Phototoxicity in human BPH1 cells assessed as cell survival at 100 uM incubated for 4 hrs followed by irradiation with blue light for 5 mins by MTT assay; format: cell-based, BPH-1; details: read-out: Survival
LNCaP [28] = test: Increase in protoporphyrin 9 levels in human LNCAP cells at 200 uM after 24 hrs by fluorescence spectrometer plate reader method; format: functional
MCF7 [29] = test: Phototoxicity in human MCF7 cells assessed as cell survival at 100 uM incubated for 4 hrs followed by irradiation with blue light for 5 mins by MTT assay; format: functional; details: MCF7, light or radiation study, read-out: Survival
KB [30] = test: Increase in protoporphyrin 9 levels in human KB cells at 100 uM after 24 hrs by fluorescence spectrometer plate reader method relative to ALA; format: functional
A549 [31] = test: Increase in protoporphyrin 9 levels in human A549 cells at 100 uM after 24 hrs by fluorescence spectrometer plate reader method relative to ALA; format: functional
A549 [32] = test: Increase in protoporphyrin 9 levels in human A549 cells at 200 uM after 6 hrs by fluorescence spectrometer plate reader method; format: functional
A549 [33] = test: Increase in protoporphyrin 9 levels in human A549 cells at 200 uM after 24 hrs by fluorescence spectrometer plate reader method; format: functional
HeLa [34] = test: Increase in protoporphyrin 9 levels in human HeLa cells after 5 hrs by fluorescence spectrometer plate reader method; format: functional, cell-based
[35] = Increase in protoporphyrin 9 levels in human BPH1 cells at 200 uM after 3 to 24 hrs by fluorescence spectrometer plate reader method; format: ADME, cell-based; details: bph-1, 200 µM
A549 [36] = test: Increase in protoporphyrin 9 levels in human A549 cells at 200 uM after 6 hrs by fluorescence spectrometer plate reader method relative to ALA and CP94; format: functional
MDA-MB-435 [37] = test: Phototoxicity in human MDA-MB-435 cells assessed as cell survival incubated for 4 hrs followed by irradiation with blue light for 5 mins by MTT assay; format: functional, cell-based
LNCaP [38] = test: Increase in protoporphyrin 9 levels in human LNCAP cells at 200 uM after 6 hrs by fluorescence spectrometer plate reader method; format: functional
A549 [39] = test: Increase in protoporphyrin 9 levels in human A549 cells at 200 uM after 3 hrs by fluorescence spectrometer plate reader method relative to ALA and CP94; format: functional
LNCaP [40] = test: Increase in protoporphyrin 9 levels in human LNCAP cells at 200 uM after 3 hrs by fluorescence spectrometer plate reader method; format: functional
HeLa [41] = test: Phototoxicity in human HeLa cells assessed as cell survival incubated for 4 hrs followed by irradiation with blue light for 5 mins by MTT assay; format: functional, cell-based
[42] = Increase in protoporphyrin 9 levels in human BPH1 cells at 100 uM after 24 hrs by fluorescence spectrometer plate reader method relative to ALA; format: ADME, cell-based; details: bph-1, 24 h
KB [43] = test: Increase in protoporphyrin 9 levels in human KB cells at 200 uM after 3 to 24 hrs by fluorescence spectrometer plate reader method; format: functional, cell-based
A549 [44] = test: Increase in protoporphyrin 9 levels in human A549 cells at 200 uM after 24 hrs by fluorescence spectrometer plate reader method relative to ALA and CP94; format: functional
LNCaP [45] = test: Phototoxicity in human LNCAP cells assessed as cell survival at 100 uM incubated for 4 hrs followed by irradiation with blue light for 5 mins by MTT assay; format: functional; details: light or radiation study, read-out: Survival
LNCaP [46] = test: Increase in protoporphyrin 9 levels in human LNCAP cells at 100 uM after 24 hrs by fluorescence spectrometer plate reader method relative to ALA; format: functional
A549 [47] = test: Phototoxicity in human A549 cells assessed as cell survival at 100 uM incubated for 4 hrs followed by irradiation with blue light for 5 mins by MTT assay; format: functional; details: A549, light or radiation study, read-out: Survival
MDA-MB-435 [48] = test: Increase in protoporphyrin 9 levels in human MDA-MB-435 cells after 5 hrs by fluorescence spectrometer plate reader method; format: functional, cell-based
A549 [49] = test: Increase in protoporphyrin 9 levels in human A549 cells at 200 uM after 3 hrs by fluorescence spectrometer plate reader method; format: functional

## NCC(=O)CCC(=O)O [AMINOLEVULINIC ACID]
HeLa [1]
  viability at 250 µM: 26.9%
MCF7 [2]
  Activity: Non-toxic
A549 [3]
  viability at 200 µM: 54.7%
HeLa [4]
  viability at 250 µM: 58.6%
[5]
  Activity: Non-toxic
LNCaP [6]
  viability at 200 µM: 61.9%
A549 [7]
  viability at 100 µM: 18.4%
A549 [8]
  Activity: Non-toxic
MDA-MB-435 [9]
  Activity: Dose-dependent effect
[10]
  viability at 4 h, 100 µM: 81.9%
MDA-MB-435 [11]
  Activity: Active
LNCaP [12]
  viability at 100 µM: 33.1%
MDA-MB-435 [13]
  viability at 250 µM: 61.4%
KB [14]
  viability at 200 µM: 52.6%
A549 [15]
  Flu intensity: 77.8 a.u.
LNCaP [16]
  Flu intensity: 31.3 a.u.
A549 [17]
  Flu intensity: 17.7 a.u.
MDA-MB-435 [18]
  viability at 250 µM: 28.9%
[19]
  viability at 4 h, 200 µM: 70.8%
LNCaP [20]
  Activity: Non-toxic
HeLa [21]
  Activity: Active
MCF7 [22]
  viability at 100 µM: 26.7%
LNCaP [23]
  Flu intensity: 46 a.u.
HeLa [24]
  Activity: Dose-dependent effect
A549 [25]
  Flu intensity: 42.1 a.u.
LNCaP [26]
  Flu intensity: 17.3 a.u.

## COC(=O)CCC(=O)CNC(=O)[C@H](Cc1ccccc1)NC(=O)c1c(O)c(=O)ccn1C
[27]
  viability at 4 h, 100 µM: 75.1%
LNCaP [28]
  Flu intensity: 58.4 a.u.
MCF7 [2]
  Activity: Non-toxic
A549 [3]
  viability at 200 µM: 16.3%
MCF7 [29]
  viability at 100 µM: 21.1%
HeLa [4]
  viability at 250 µM: 15.3%
KB [30]
  fold change (FC): 2.9
A549 [31]
  fold change (FC): 3.1
[5]
  Activity: Non-toxic
LNCaP [6]
  viability at 200 µM: 13.5%
A549 [8]
  Activity: Non-toxic
A549 [32]
  Flu intensity: 52.9 a.u.
A549 [33]
  Flu intensity: 94.6 a.u.
HeLa [34]
  Activity: Dose-dependent effect
[35]
  Activity: Non-toxic
A549 [36]
  Flu intensity: 1.3 a.u.
MDA-MB-435 [37]
  Activity: Dose-dependent effect
LNCaP [38]
  Flu intensity: 47.1 a.u.
A549 [39]
  Flu intensity: 1.6 a.u.
MDA-MB-435 [13]
  viability at 250 µM: 11.1%
KB [14]
  viability at 200 µM: 7.8%
LNCaP [40]
  Flu intensity: 25.3 a.u.
HeLa [41]
  Activity: Dose-dependent effect
[42]
  fold change (FC): 1.5
KB [43]
  Activity: Active
A549 [44]
  Flu intensity: 1.2 a.u.
[19]
  viability at 4 h, 200 µM: 12.4%
LNCaP [20]
  Activity: Non-toxic
LNCaP [45]
  viability at 100 µM: 26.3%
LNCaP [46]
  fold change (FC): 4
A549 [47]
  viability at 100 µM: 14.7%
MDA-MB-435 [48]
  Activity: Dose-dependent effect
A549 [49]
  Flu intensity: 27.7 a.u.
